Results as given in patent publication US20070219159A1, “CYCLODEXTRIN COMPOSITIONS AND METHODS OF TREATING VIRAL INFECTIONS” (priority 2002, published 2007).
Read-outs that look alike come from different tables or passages of the source.

Key:
[1] = system: dlsptk (an ACV-resistant, tk deletion mutant of HSV-1); type: cell-based; conditions: MOI 10
HSV-1 strain KOS1.1 = type: cell-based; conditions: for yield of cell-free and cell-associated virus: 24 hours post-infection, MOI 50, BCD 7.2 mg/ml, ACV 400 μg/ml or both, pre, during and post infection treatment (FIG. 1)
d27-lacZ1 (β-gal HSV) = assay: Semi-quantitative PCR of intracellular HSV DNA (HSV entry); conditions: MOI 0.01 or 0.1, β-CD 7.2 mg/ml pre-, 5.4 mg/ml post-infection, versus untreated infected cells

## OC[C@H]1O[C@@H]2O[C@H]3[C@H](O)[C@@H](O)[C@@H](O[C@H]4[C@H](O)[C@@H](O)[C@@H](O[C@H]5[C@H](O)[C@@H](O)[C@@H](O[C@H]6[C@H](O)[C@@H](O)[C@@H](O[C@H]7[C@H](O)[C@@H](O)[C@@H](O[C@H]8[C@H](O)[C@@H](O)[C@@H](O[C@H]1[C@H](O)[C@H]2O)O[C@@H]8CO)O[C@@H]7CO)O[C@@H]6CO)O[C@@H]5CO)O[C@@H]4CO)O[C@@H]3CO [BCD, β-cyclodextrin]
[1]; 6.4 mg/ml BCD, 24 hours
  reduction of ACV-resistant virus yield: approximately 10^3 PFU
[1]; 20 μM (4.5 μg/ml) ACV or 6.4 mg/ml β-CD for 24 hours
  effect on yield of acyclovir-resistant dlsptk virus (FIG. 2): lowered the yield
HSV-1 strain KOS1.1; 6.4 mg/ml BCD, MOI 10, post-infection treatment
  reduction of KOS1.1 virus yield at 24 hours: approximately 10^3 fold
HSV-1 strain KOS1.1
  yield of cell-free and cell-associated virus: more effective at reducing virus numbers than ACV alone
HSV-1 strain KOS1.1; listed as β-CD
  yield of cell-free and cell-associated virus: reduced to a greater extent by β-CD than by a fairly high concentration of acyclovir
HSV-1 strain KOS1.1; MOI 10, 20 μM ACV or 6.4 mg/ml β-CD for 24 hours
  effect on yield of acyclovir-sensitive HSV KOS1.1 (FIG. 2): lowered the yield
d27-lacZ1 (β-gal HSV)
  amount of intracellular viral DNA / viral entry: did not significantly alter viral entry
d27-lacZ1 (β-gal HSV); listed as β-CD
  amount of intracellular viral DNA / viral entry: No significant differences
